Format in all cases: cell-based
For test [1], the system named is breast cancer (MDA-MB-468 and MCF-7 cell lines) and melanoma cell lines (MalMe3, SkMe128). Nature of the test: Cell cycle analysis by flow cytometry (propidium iodide); apoptosis as cells in sub G0/G1 (pre G0) peak. Conditions: following treatment with IC70 concentration of compound. As to the method: Assessment of cell cycle analysis was performed using propidium iodide staining of cells and subsequent analysis on a Beckton Dickinson flow cytometer. […] The following day the medium was removed and replaced with 5 ml medium per flask containing the appropriate drug concentrations to be tested. 40 mg/ml stock drug solutions in DMSO were stores at −20° C. and on the day off drug treatment working solutions of 4 mg/ml were prepared in medium from which the final drug dilutions were prepared. Cells were maintained in an incubator (37° C., 5% CO2) for up to 96 h post treatment. After 24, 48, 72 or 96 h time points the medium from each flask was collected, stored on ice, and the remaining cells in the flasks were trypsinised by aiding 1 ml trypsin-EDTA solution to each flask. Cells were replaced into the incubator for 10 min to allow them to detach from the plastic plate. The cells in each flask were collected by adding the appropriate medium removed from each flask back to the corresponding flask and then placing medium containing both the attached and floating cells into a 15 ml tube. Cells were centrifuged at 4° C. for 5 min at 1500 rpm and the supernatant removed from each tube. The remaining cells were washed twice in ice cold PBS and then fixed in ice cold methanol overnight at −20° C. On the day of analysis of cells each tube was centrifuged at 4° C. for 5 min at 1500 rpm and the methanol removed and the cells washed twice in ice cold PBS. 20 μl propidium iodide solution (1 mg/ml) and 20 μl RNase A (10 mg/ml solution) were added to 1 ml PBS per tube and the cells were incubated for 30 min at 37° C. Cells were analysed on the flow cytometer and cell cycle changes were assessed.

Another test relates to HCT+/+. The test can be described thus: MTT assay (anti-proliferative activity). The text has this: (§1) The MTT assay was used initially to determine the anti-proliferative activity of the test compounds. In the MTT assay a yellow thiazolyl blue tetrazolium bromide salt (MTT) is reduced, in metabolically active cells, to form insoluble purple formazan crystals which are solubilised by the addition of dimethyl sulphoxide (DMSO). Absorbance readings can then be determined spectrophotometrically and a relationship established between control untreated cells and drug treated cells enabling the quantification of anti-proliferative changes as a result of drug treatment (Mosmann, 1983).
(§2) Wells containing medium only were used as blanks. Following the attachment period, cells were treated with appropriate drug concentrations (20 μl added per well). 40 mg/ml stock drug solutions, in DMSO, were stored at −20° C. and on the day of drug treatment working solutions of 4 mg/ml were prepared in medium which was further diluted to achieve final drug dilution volumes of 20 μl. Initial screening was determined over a concentration range of 1-200 μg/ml. For potent compounds the assay was repeated over a narrower concentration range to determine accurate IC50 values. Cells were exposed to drug for 96 h continual exposure (37° C., 5% CO2). Following the 96 h incubation, 50 μl MTT solution (1 g MTT/500 ml PBS) was added per well and the plates were further incubated for 4 h (37° C., 5% CO2). After incubation the MTT and medium was removed from the wells and 100 μl DMSO added per well. Plates were agitated on an orbital mixer platform (Stuart Scientific) for 10 minutes. Absorbance was measured at 570 nm on a Biotrak II (Amersham Bioscience) plate reader. IC50 values were calculated comparing control and drug treated cells.
(Formazan colour is commonly taken as a measure of viable cells.)

The test system of another test is RKO. Nature of the test: MTT assay (anti-proliferative activity).
Description: as §1, §2

In a further test the test system is PNT2. The test can be described thus: MTT assay (anti-proliferative activity).
Description: as §1, §2

The next test has as its system PC3. The test can be described thus: MTT assay (anti-proliferative activity).
Description: as §1, §2

The test system of a further test is HCT−/−. Nature of the test: MTT assay (anti-proliferative activity).
Description: as §1, §2

The test system of the next test is ZR-75-1. The test can be described thus: MTT assay (anti-proliferative activity).
Description: as §1, §2

In a further test the test system is H23. Nature of the test: MTT assay (anti-proliferative activity).
Description: as §1, §2

In the next test the test system is HT29. The test can be described thus: MTT assay (anti-proliferative activity).
Description: as §1, §2

The test system of another test is LNCAP. Nature of the test: MTT assay (anti-proliferative activity).
Description: as §1, §2

The structures appear in SMILES notation. pIC50: −log10 of the molar value.

The text below walks through data of US20090047221A1 (NIPRI LIMITED, priority 2004, published 2009).

As to `CC(C)CC(NC(=O)c1ccc2c(c1O)C(=O)OC(C)C2)C(=O)OC(C)(C)C` (mixture of isomers) [ALM-55, Leucine Tert-Butyl Ester Amide], the “% Cells in Pre G0 phase of Cell Cycle” value in test [1] was found to be 3.4%.

Take `CCCCC/C=C\C/C=C\C/C=C\CCCCCOC(=O)c1ccc2c(c1O)C(=O)OC(C)C2` (racemic) [ALM-43, γ-Linolenyl Ester]: in test [1], the “% Cells in Pre G0 phase of Cell Cycle” value is 11.8%. The pIC50 (commonly the negative decadic logarithm of the IC50, by convention in mol/L) is 4.67 in the test on HCT+/+; 4.97 with RKO; 5.28 in the test with PNT2; 5.02 with PC3; 4.37 in the test on HCT−/−; 5.19 in the test with ZR-75-1. Further, the pIC50 in the test with H23 was 5.68; in the test with HT29 it was 4.73; with LNCAP it was 4.97.

As to `CCCCCCNC(=O)c1ccc2c(c1O)C(=O)OC(C)C2` (racemic) [ALM-49, Hexyl Amide], the “% Cells in Pre G0 phase of Cell Cycle” value in test [1] is 14.1%.

For the molecule `CC1(C)Cc2ccc(C(=O)N[C@@H](Cc3ccccc3)C(=O)O)c(O)c2C(=O)O1` [ALM-74, L-Phenyl Alanine Amide of Compound ALM-73], in test [1], the “% Cells in Pre G0 phase of Cell Cycle” value turned out to be 34.4%.
